Reference: ChEMBL document CHEMBL1201862, “PubChem BioAssay data set” (2004)
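1) Cells in 96-well plates. 2) Compound, 48 h, 5 concentrations. 3) Linear interpolation between surrounding doses. 4) Unreached endpoint = highest concentration. GI50 = concentration required for 50% inhibition of growth.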 Active and inactive are the calls of the source. Rule as the data show it: active = GI50 up to about 1.1 µM and inactive = higher.

How the values were obtained:
Test in all cases: NCI tumour cell line growth inhibition, 48 h
COLO 205 = test system: COLO 205
HOP-92 = test system: HOP-92
UACC-62 = test system: UACC-62
SNB-75 = test system: SNB-75
SK-MEL-2 = test system: SK-MEL-2
Malme-3M = test system: Malme-3M
IGROV-1 = test system: IGROV-1
CCRF-CEM = test system: CCRF-CEM
SF-295 = test system: SF-295
786-0 = test system: 786-0
NCI-H522 = test system: NCI-H522
A549 = test system: A549
OVCAR-5 = test system: OVCAR-5
K562 = test system: K562
ACHN = test system: ACHN
SN12C = test system: SN12C
SK-MEL-5 = test system: SK-MEL-5
MDA-MB-231 = test system: MDA-MB-231
A498 = test system: A498
HCT-15 = test system: HCT-15

| Structure (SMILES) | GI50 (COLO 205) | GI50 (HOP-92) | GI50 (UACC-62) | GI50 (SNB-75) | GI50 (SK-MEL-2) | GI50 (Malme-3M) | GI50 (IGROV-1) | GI50 (CCRF-CEM) | GI50 (SF-295) | GI50 (786-0) | GI50 (NCI-H522) | GI50 (A549) | GI50 (OVCAR-5) | GI50 (K562) | GI50 (ACHN) | GI50 (SN12C) | GI50 (SK-MEL-5) | GI50 (MDA-MB-231) | GI50 (A498) | GI50 (HCT-15) |
| --- | --- | --- | --- | --- | --- | --- | --- | --- | --- | --- | --- | --- | --- | --- | --- | --- | --- | --- | --- | --- |
| O=[N+]([O-])c1ccc2sc(/C=N/c3ccccn3)cc2c1 | > 100 µM (inactive) | 69.8 µM (inactive) | 99.1 µM (inactive) | > 100 µM (inactive) | > 100 µM (inactive) | > 100 µM (inactive) | 60.4 µM (inactive) | 33.8 µM (inactive) | 82.8 µM (inactive) | > 100 µM (inactive) | > 100 µM (inactive) | > 100 µM (inactive) | > 100 µM (inactive) | 26.8 µM (inactive) | 98.6 µM (inactive) | 88.7 µM (inactive) | > 100 µM (inactive) | 84.1 µM (inactive) | > 100 µM (inactive) | 51.4 µM |
| S=C(N/N=C(/c1ccccc1)c1ccccn1)N1CCCCCC1 | < 0.018 µM (active) | 0.55 µM (active) | 0.0476 µM (active) | 0.036 µM (active) | 0.489 µM (active) | < 0.0295 µM (active) | < 0.0198 µM (active) | < 0.0133 µM (active) | < 0.0374 µM (active) | < 0.0265 µM (active) | 0.0731 µM (active) | < 0.0371 µM (active) | 0.0764 µM (active) | < 0.0115 µM (active) | < 0.0421 µM (active) |  | < 0.0228 µM (active) | 0.01 µM (active) | 0.269 µM (active) | < 0.0213 µM |
| N#CC1=C(N)OC(c2cccc([N+](=O)[O-])c2)C1(C#N)C#N (stereo unspecified) | 17 µM (inactive) | 16.8 µM (inactive) | 26.6 µM (inactive) | 0.78 µM (active) | 21.3 µM (inactive) | 18.3 µM (inactive) | 17.6 µM (inactive) |  | 26.5 µM (inactive) | 14.9 µM (inactive) | 14.2 µM (inactive) | 34.8 µM (inactive) | 20.6 µM (inactive) | 26.2 µM (inactive) | 18.2 µM (inactive) | 33.2 µM (inactive) | 18 µM (inactive) | > 10 µM (inactive) | 19.7 µM (inactive) | 18.7 µM |
| [N-]=[N+]=Nc1c(N2CCOCC2)c(Cl)nc2ccccc12 | 33.5 µM (inactive) | 46.7 µM (inactive) |  | < 0.01 µM (active) | 39 µM (inactive) | 41.5 µM (inactive) | 81.8 µM (inactive) | > 100 µM (inactive) | 60.5 µM (inactive) | 86.7 µM (inactive) | 29.7 µM (inactive) | 51.2 µM (inactive) | > 100 µM (inactive) | 37.6 µM (inactive) | 39.2 µM (inactive) | 47.8 µM (inactive) | 20.7 µM (inactive) | 23.1 µM (inactive) | 47.9 µM (inactive) | 46.6 µM |
| O=C1/C(=C/c2ccco2)N=C2Sc3c([nH]cnc3=O)N12 | > 100 µM (inactive) | > 100 µM (inactive) |  | > 100 µM (inactive) | > 100 µM (inactive) | > 100 µM (inactive) | > 100 µM (inactive) | > 100 µM (inactive) | > 100 µM (inactive) | > 100 µM (inactive) | > 100 µM (inactive) | > 100 µM (inactive) | > 100 µM (inactive) | > 100 µM (inactive) | > 100 µM (inactive) | > 100 µM (inactive) | > 100 µM (inactive) | > 100 µM (inactive) | > 100 µM (inactive) | > 100 µM |
